Laboratory results reported in patent publication US20240342148A1, “METHODS OF TREATING FACIOSCAPULOHUMERAL MUSCULAR DYSTROPHY WITH LOSMAPIMOD” (Fulcrum Therapeutics, Inc., priority 2021, published 2024).
Values joined by “and” are separate entries in the source; they are usually repeats but may differ in a detail not shown here. Equal values may be shown once.

Legend:
[1] = Muscle losmapimod concentrations in needle biopsies; assay type: in vivo; settings: human, po, 15 mg BID, 15 mg orally BID
Protocol: Muscle needle biopsies were performed using the Bergstrom needle or fine needle at D1 and Wk16, or Wk36 if the muscle biopsy could not be performed at Wk16. The choice of the muscle(s) to be biopsied was determined by the investigator, informed by MRI taken during screening. Only those STIR+ muscles with 10%≤MFF≤40% were eligible for biopsy. […] The bilateral vastus lateralis, vastus medialis, lateral gastrocnemius, medial gastrocnemius, and tibialis anterior were evaluated for eligibility by MRI using a central reader. The Wk16 or Wk36 muscle needle biopsies were performed in the same approximate location as the pretreatment (D1) muscle biopsy. At baseline, MRI fiducials were placed in order to identify the location for the needle biopsy. Coordinates in reference to the closest fiducial defined the location for the muscle biopsy. […] Approximately 15-40 mg of tissue was obtained at each biopsy and frozen in liquid nitrogen within 60 seconds after excision and stored at −80° C. (SciSafe Inc. Billerica, MA, USA) until analysis.
(§1) Plasma and muscle losmapimod concentrations were measured by 2 validated bioanalytical high-performance liquid chromatography methods by PPD, USA (PPD 2019).

[2] = Plasma losmapimod concentrations (PK), Phase 2b RCT; assay type: in vivo, human; settings: 15 mg orally BID
Protocol: Blood samples for PK assessment (plasma losmapimod concentrations) were collected at D1, Wk4, Wk16, and Wk36 at the following time points: immediately pre-dose and 4 hours (±30 minutes) after administration of the study dose (approximate Cmax). PK samples were also taken, when feasible, after dosing during the Wk12, Wk24, and Wk48 visits, preferably ≥1 hour after dosing.
as §1

subjects with FSHD [3] = assay: Safety and tolerability in the RCT; assay type: in vivo, human; settings: 15 mg BID up to 48 weeks
Protocol: All safety analyses were performed using the safety analysis set based on as-treated treatment group. Safety analyses included summaries of TEAEs, clinical laboratory, vital signs and ECGs.

subjects with FSHD [4] = assay: WB-MSK MRI composite scores (MFI, MFF, LMV); assay type: in vivo, human
Text: The images were acquired in five different sections. The rotator cuff was imaged using a neck coil, torso and legs using anterior surface coils and integrated table coils, and the upper extremities using a surface and table coils, after the patient was repositioned such that the extremity was in the center of the MRI scanner. T1-weighted Dixon-images of 18 muscles bilaterally, 36 total, were acquired and water and fat images were reconstructed using the scanner built-in phase-sensitive reconstruction (Siemens: Dixon-Vibe; Philips: mDixon). Three different measures were calculated for each muscle. The muscle fat fraction (MFF) is the total fat fraction inside the muscle fascia. The muscle fat infiltration (MFI) represents the diffuse fat infiltration in the muscle tissue and is defined as the fat fraction of the muscle voxels that contain <50% fat. Therefore, MFI measures the MFF for muscle tissue that is not end-stage. The lean muscle volume (LMV) represents the total amount of functional muscle tissue and is measured by removing all fat within the muscle volume. Each muscle was categorized based on these measures and supported by prior literature as normal appearing (Category A, MFI<0.10; MFF<0.50), intermediate (Category B, MFI≥0.10; MFF<0.50), and late-stage (Category C, MFF≥0.50). Two composite scores were used to assess the treatment efficacy and correlation with relevant clinical outcome assessments. The treatment efficacy composite score includes only those muscles identified as normal appearing or at high risk for progression (Category A or B muscles) at baseline that were measurable at both observation timepoints, having no signal quality issues. The regional composite scores for correlations are composed of all muscles that were involved in the specific functional assessment of interest regardless of their categorization (FIG. 2). The scores were derived by scientists at the MRI Service Provider (AMRA Medical Inc.) in a blinded fashion, with no access to treatment assignment information. Measurements for muscles with major quality issues, (i.e., muscles with missing values), were imputed. Late-stage muscles were not included in the analysis as these contain high fat fraction which makes them challenging to quantify accurately, and likely are already not functional. A mixed-effects model for repeated measures (MMRM) was used to analyze the change from baseline in each composite MRI score (MFFtotal, LMVtotal, and MFItotal), with repeat number category, treatment group, visit, and treatment-by-visit interactions as fixed effects and baseline value of the parameter as a covariate. […]

subjects with FSHD [5] = assay: Patients' Global Impression of Change (PGIC); assay type: in vivo, human; settings: Wk48
Protocol: The Patients' Global Impression of Change (PGIC) Questionnaire was administered at every visit after baseline. Subjects were asked to rate their overall status since the start of the study on a scale from 1 (very much improved) to 7 (very much worse). The PGIC scale has been validated in several other indications and is recommended by the FDA for use as a meaningful measure of within-patient change.

subjects with FSHD [6] = assay: Motor Function Measure Domain 1 (MFM); design: species or system human; settings: in vivo
Protocol: MFM domain 1 assessments were performed at all visits, except for those on Wk4 and Wk16. The MFM scale assesses the severity of motor deficit. Domain 1 of the MFM provides an assessment of functional impairment for standing and transfers.

subjects with FSHD [7] = assay: FSHD health index (FSHD-HI); design: species or system human; settings: in vivo
Protocol: The FSHD health index questionnaire was administered at all visits except for Wk16. This is a FSHD-specific patient-reported measure of disease burden on activities of daily living, quality of life, and symptom prevalence and severity. It consists of a questionnaire with 116 items developed from qualitative interviews of patients followed by a national cross-sectional validation study. The measure consists of 14 subscales that measure a patient's perception of their ambulation and mobility, hand function, shoulder and arm function, emotional health, back/chest/abdomen strength, fatigue, pain, eating function, ability to do activities, communication ability, satisfaction in social situations, performance in social situations, body image and cognition. Scoring was performed centrally by the developer.

- concentration at 16 weeks ([1]; Wk16 biopsy, read-out: Concentrations in muscles at Wk16): 61 ± 7.7 ng/g
- concentration at 36 weeks ([1]; Wk36 biopsy, read-out: Concentrations in muscles at Wk36): 91.1 ± 10.7 ng/g
- Plasma concentrations of losmapimod pre-dose ([2]; pre-dose): 25.2 to 34.4 ng/mL
- Cmax at 4 h ([2]; human, plasma, po, 4 h post-dose, read-out: Plasma concentrations of losmapimod 4 h post-dose (approximate Cmax)): 66.4 to 91.8 ng/mL
Compound: Cc1c(F)cc(C(=O)NC2CC2)cc1-c1ccc(C(=O)NCC(C)(C)C)cn1 [losmapimod, 6-(5-cyclopropylcarbamoyl-3-fluoro-2-methyl-phenyl)-N-(2,2-dimethylpropyl-)-nicotinamide]
- Safety and tolerability (subjects with FSHD [3]): favorable safety and tolerability
- MFI or MFF in normal appearing muscles at baseline (A muscles), post-hoc (subjects with FSHD [4]; A muscles, compared to placebo): little or no accumulation of fat
- LMV vs placebo (subjects with FSHD [4]; B muscles): no difference
- MFF fat replacement vs placebo (subjects with FSHD [4]; B muscles): nonsignificant reduction
- MFI efficacy composite vs placebo (subjects with FSHD [4]; muscles at high risk of progression (B muscles), p=0.01): significantly less fat infiltration
- Patients reporting feeling very much worse on PGIC (6-7 in Likert scale) (subjects with FSHD [5]): No losmapimod treated patients
- Patients reporting improvement on PGIC (1-3 in Likert scale) (subjects with FSHD [5]): 27.5% and ~20%
- PGIC difference compared to placebo (subjects with FSHD [5]; 1-7 Likert scale, p=0.02): 0.58
- MFM total score vs placebo (subjects with FSHD [6]): no difference
- FSHD-HI vs placebo (subjects with FSHD [7]): no difference
